US7169568B2, “Method for screening molecules that exert a neurotrophic effect through activation of neurotrophin receptors” (New York University, priority 2000, dated 2007)

How the values were obtained:
TrkB receptors = assay: Trk receptor phosphorylation in primary E17 hippocampal neurons (immunoprecipitation, anti-phosphotyrosine Western blot); format: cell-based, rat; settings: two hours
Description: FIGS. 4A and 4B show Western blots on adenosine activation of Trk receptors in hippocampal neurons. Primary cultures of E17 hippocampal neurons were prepared as described in the Materials and Methods of Example 1 and treated with (FIG. 4A) CGS 21680 (10 nM) or BDNF (1 ng/ml) for various times and (FIG. 4B) either adenosine (10 μM), CGS 21680 (10 nM), CPA (10 nM) or BDNF (10 ng/ml) for 2 hr. Activation of TrkA receptors was assessed by immunoprecipitation and Western blotting with anti-phosphotyrosine antibody.
(§1) Immunoprotection and Immunoblotting. PC12 cells or PC12-615 cells (Hempstead et al, 1992), were maintained in Dulbecco's Modified Eagle's Medium (DMEM) containing 10% fetal bovine serum (FBS) supplemented with 100 units/ml penicillin, 100 μg/ml streptomycin, and 2 mM glutamine plus 200 μg/ml G418. Cells were placed in low serum medium (1% FBS, 0.5% horse serum) overnight prior to experiments. Cell lysates from PC12, 615 cells, or hippocampal cells were incubated in lysis buffer (1% NP40) for 4 hours to overnight at 4° C. with anti-pan-Trk polyclonal antibody, followed by incubation with protein A-Sepharose beads. Equivalent amounts of protein were analyzed for each condition. The beads' were washed five times with lysis buffer and the immune complexes were boiled in SDS-sample buffer and loaded on sodium dodecyl sulfate-polyacrylamide electrophoresis (SDS-PAGE) gels for immunoblot analysis. The immunoreactive protein bands were detected by ECL reagents based upon enhanced chemiluminescence procedure (Amersham Pharmacia).
Hippocampal Cell Cultures. Dissociated primary cultures of hippocampal neurons from embryonic day 17 (E17) rats were prepared from timed-pregnant Sprague-Dawley rats as described previously (Aibel et al, 1998). Fetuses were removed under sterile conditions and kept in PBS on ice for microscopic dissection of the hippocampus. The meninges were removed and the tissue was placed in Neurobasal media (Gibco BRL). […] Cells were counted and then plated on culture wells coated with 0.01 mg/ml poly-D-lysine overnight. […]

Akt = Akt activation in PC12 cells (anti-phospho Akt immunoblot); format: cell-based; settings: PC12 cells; adenosine 10 μM; CGS 21680 data not shown
Description: as §1, with “PC12 cells (615) were treated with adenosine (10 μM) for various times in the presence or absence of […] (100 nM) or LY294002 (10 μM). The cells were subsequently harvested in lysis buffer; lysates and immunoprecipitated samples were subsequently immunoblotted with anti-phospho MAP kinase, anti-phospho Akt, and anti-phosphotyrosine. Reprobing with anti-MAP kinase and anti-pan-Trk antibodies was carried out to ensure equal protein loading. To assess the activity of Akt, endogenous Akt can be immunoprecipitated from lysates with anti-Akt and the proteins assayed in Western blots with anti-phospho-Akt antibodies. Use of the anti-Akt antibody versus the anti-phospho-Akt antibody on lysates can give a comparative assessment of the relative level of the enzyme and extent of activation (Kim et al., 2001). […]” for “Immunoprotection”

TrkA = TrkA (Homo sapiens, UniProt P04629); assay: 125I-NGF equilibrium binding, HEK 293 cells expressing TrkA; parameters: expressed in transfected cells; host or cells: HEK 293 cells; settings: for Specific Binding of 125I-NGF: 293/TrkA, 1 μM, 30 minutes at 25° C., control 39076 +/− 2885; for Displacement of 125I-NGF binding: 293 cells that expressed TrkA, excess concentrations
Chain of TrkA (P04629 33-796, species assumed): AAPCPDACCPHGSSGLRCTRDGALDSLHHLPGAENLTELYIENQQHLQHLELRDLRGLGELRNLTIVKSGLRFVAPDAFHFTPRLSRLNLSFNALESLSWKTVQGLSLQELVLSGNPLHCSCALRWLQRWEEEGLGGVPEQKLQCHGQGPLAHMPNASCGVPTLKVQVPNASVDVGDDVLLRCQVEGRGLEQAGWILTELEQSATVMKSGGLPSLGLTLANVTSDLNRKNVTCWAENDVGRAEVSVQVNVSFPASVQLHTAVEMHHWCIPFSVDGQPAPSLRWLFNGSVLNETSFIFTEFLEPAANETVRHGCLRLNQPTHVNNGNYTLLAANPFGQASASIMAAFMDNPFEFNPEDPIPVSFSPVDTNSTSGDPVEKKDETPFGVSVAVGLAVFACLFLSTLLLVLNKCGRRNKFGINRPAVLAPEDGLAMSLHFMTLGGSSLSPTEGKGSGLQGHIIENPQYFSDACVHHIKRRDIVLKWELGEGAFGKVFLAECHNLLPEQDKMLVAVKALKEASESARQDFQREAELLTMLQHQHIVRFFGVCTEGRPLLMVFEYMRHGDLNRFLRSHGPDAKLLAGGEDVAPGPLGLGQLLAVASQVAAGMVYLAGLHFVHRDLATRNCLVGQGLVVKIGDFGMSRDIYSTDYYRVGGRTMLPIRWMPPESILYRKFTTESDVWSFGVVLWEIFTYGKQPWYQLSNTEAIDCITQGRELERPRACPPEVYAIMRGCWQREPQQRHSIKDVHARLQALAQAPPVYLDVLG
Description: ^125I-NGF Binding Analysis. For equilibrium binding studies, ^125I-NGF was prepared as described previously (Hempstead et al, 1989). PC12 cells stably overexpressing TrkA (2×10^5 cells) and HEK 293 cells expressing TrkA (2×10^5) were incubated with ^125I-NGF in the absence and presence of adenosine compounds for 30 minutes at 25° C. The cells were then washed twice with PBS, and ^125I-NGF stripped with an acid solution (0.2 M acetic acid, 0.5 M NaCl). Nonspecific binding was assessed by adding unlabeled NGF at a final concentration of 1000 ng/ml and represented less than 20% of total binding. Specific binding was defined as total binding minus nonspecific binding. All conditions were carried out in triplicate and SEM calculated.

SMILES: CCNC(=O)[C@H]1O[C@@H](n2cnc3c(N)nc(NCCc4ccc(CCC(=O)O)cc4)nc32)[C@H](O)[C@@H]1O [CGS 21680, 2-[(4-(2-carboxyethyl)phenylethyl)]aminoadenosine-5′-N-ethylcarboxamide]
- Phosphorylation of TrkB receptors (TrkB receptors; 10 nM): gave rise to phosphorylated TrkB receptors
- Activation of Akt (phospho-specific antibody) (Akt): able to activate Akt
- Specific Binding of 125I-NGF (TrkA): 39568 +/− 2032
- Displacement of 125I-NGF binding (TrkA): did not displace

SMILES: Nc1ncnc2c1ncn2[C@@H]1O[C@H](CO)[C@@H](O)[C@H]1O [adenosine]
- Phosphorylation of TrkB receptors (TrkB receptors; 10 μM): gave rise to phosphorylated TrkB receptors
- Activation of Akt (phospho-specific antibody) (Akt): able to activate Akt
- Specific Binding of 125I-NGF (TrkA): 36618 +/− 4185
- Displacement of 125I-NGF binding (TrkA): did not displace
